Laboratory results from patent US20160367511A1, “EFFICACY OF DIETARY DHA-PHOSPHOLIPID FOR BRAIN DHA AND DPA ACCRETION IN NEONATES” (N.V. NUTRICIA, priority 2013, published 2016).

Conditions: both, Yorkshire x Landrace cross sows bred with Hampshire boars, pig, in vivo, 6 days
Protocol: The TAG tracer (TAG-^13C-DHA) had ^13C-DHA in the sn-2 position with unlabeled 16:0 in the sn-1 and sn-3 positions. The tracer representative for PL was phosphatidylcholine (PC) with ^13C-DHA in the sn-2 position and unlabeled 16:0 in the sn-1 position (PC-^13C-DHA).
Sows (Yorkshire and Landrace cross) were bred with Hampshire boars. After birth, piglets were left to nurse with the sow for at least 48 hours. Twenty piglets, 2 to 4 days of age, were chosen for the study based on the following criteria: weight (about 2.0 kg), gender (10 males and 10 females), health (active and apparently normal, and not the smallest animal in the litter) and sow. Piglets were given a unique number/color combination identifier and then were transported to Large Animal Research and Teaching Unit (LARTU), Cornell University.
At the study site, piglets were housed in individual stainless steel cages and were placed on a single fully balanced commercially available young farm animal milk replacer formula immediately upon arrival.
On day 16 of life, 16 robust piglets were assigned to two dosing groups balanced with respect to gender, weight, and age but otherwise distributed randomly. Group PC were orally dosed with PC-^13C-DHA; Group TG were dosed with TG-^13C-DHA.
Doses were prepared by dissolving CHC13 solutions of PC-^13C-DHA or TAG-^13C-DHA in about 1 mL of refined olive oil and driving off the CHCl3 by gentle heating under flowing dry N2 over 4 hours. The resulting olive oils were carefully placed on the surface of a few mL of reconstituted piglet formula and sonicated until homogeneous. The resulting labeled formula was split into 1 to 2 mL aliquots gravimetrically and administered orally to piglets, followed by several washes of the vials containing the labeled formulas, at the beginning of a feed. Care was taken to insure all of the labeled formula and the washes, consisting of a total of up to 10 mL, were swallowed by the piglets. Piglets were then provided with their normal meal of 500 mL milk replacer which they routinely consume completely. Doses to piglets corresponded to about 20 mg ^13C-DHA delivered in PC and 86 mg of ^13C-DHA delivered in TAG.
Six days after the dose, and on a single day after 20 days of formula, all piglets were euthanized by exsanguination under anesthesia. Blood for fatty acid analysis was collected in tubes with EDTA and spun to prepare red blood cells. […] A piece was immediately used for preparation of synaptosomes, and the remaining grey matter was flash frozen for fatty acid analysis. Retina, heart, liver, biceps femoris muscle and kidney were also harvested, and all tissues were flash frozen and stored at −80° C. until prepared for analysis. […]

In the case of `CC/C=C\C/C=C\C/C=C\C/C=C\C/C=C\C/C=C\CCC(=O)O` [^13C-DHA, docosahexaenoic acid], the “13C-DHA relative to 13C-DPA in grey matter” value was “about 8 fold”, the “13C-DHA relative to 13C-DPA in liver” value was 40 fold and the “13C-DHA relative to DPAn-3 in retina” value was 6.3 fold. The “liver 13C-DHA relative to grey matter 13C-DHA” value was “about 20 fold”.
